In one experiment the test system is Fusarium culmorum. The conditions noted are these: in vivo.
For another experiment, the system named is Rhizoctonia. The settings on record: in vivo.

With `O=[N+]([O-])NC1=NCCN1Cc1ccc(Cl)nc1` [Imidacloprid, N-[1-[(6-chloropyridin-3-yl)methyl]-4,5-dihydroimidazol-2-yl]nitramide], in the experiment on Fusarium culmorum, the “fungicidal activity of the insecticide by itself” value is on record as “does not have fungicidal activity by itself” and the “stimulation of the fungicidal action of natamycin” value is recorded as “stimulates the fungicidal action of natamycin on seeds of different plants”.

As to abamectin, in the experiment on Rhizoctonia, the “fungicidal activity of the insecticide by itself” value is “does not have fungicidal by itself” and the “stimulation of the fungicidal action of natamycin” value was “stimulates the fungicidal action of natamycin against different fungal pathogens on seeds”.

For the origin of these results see patent US12484583B2 (priority 2019, dated 2025).
